Measurements: patent US20110104173A1, “INHIBITION OF DEGRADATION OF EXTRACELLULAR MATRIX” (The Australian National University, priority 2006, published 2011)

How the values were obtained:
[1] = system: prediabetic adult female NOD/Lt mice; experiment: PI-88 treatment of prediabetic NOD/Lt mice, onset of autoimmune diabetes; assay type: in vivo, mouse; settings: PI-88 10 mg/kg/day i.p. from 10.5 weeks of age, vs saline controls
Excerpt: FIG. 3: PI-88 treatment prevents development of autoimmune diabetes in NOD/Lt mice. […] The incidence of diabetes in the holding female NOD/Lt mouse colony of the inventors is 60%.
Studies conducted by the inventors have shown that heparanase transcripts are increased 7-fold in prediabetic and diabetes-onset NOD mice, compared to neonatal NOD mice; only background levels were detected in normal CBA/H mice (see TABLE 1).

[2] = system: NODscid islet isografts in diabetic NOD/Lt female mice; experiment: NODscid islet isografts in diabetic NOD/Lt mice, recurrence of autoimmune disease; assay type: in vivo, mouse
Excerpt: FIG. 8: (a) PI-88 therapy prevents disease recurrence in islet isografts. Isografts of 450-500 female NODscid islets transplanted beneath the kidney capsule of diabetic NOD/Lt female mice return non-fasting blood glucose levels to the normal range (shaded region defines the normal range). Without further treatment in a control recipient (circles), hyperglycemia returned from day 3. In contrast, an NODscid islet isograft maintains normoglycemia for up to 14 days in a diabetic NOD mouse treated with PI-88 (10 mg/kg/day i.p.) from day 3 (squares).
Consequently in vivo treatment of transplanted mice with PI-88 should prevent islet allograft rejection, disease recurrence in islet isografts (see FIG. 8) and facilitate the survival and function of islet allografts in diabetic NOD/Lt mice. To assess whether PI-88 therapy is graft-protective, NODscid islets were transplanted to autoimmune diabetic NOD mice 400-500 islets/graft. The mice were treated with PI-88 (10 mg/kg/day) i.p. from day 3 post-transplant (after graft revascularisation). Control transplanted mice were treated with saline. Graft function was monitored by measurement of non-fasting blood glucose levels (using a glucometer (MediSense 2)) 2-3×/week.

[3] = system: lipopolysaccharride (LPS)-induced inflammation; settings: in vivo treatment, rodents; cited from earlier work
[4] = system: BALB/c (H-2d) islet allografts in CBA/H (H-2k) mice; experiment: BALB/c islet allograft survival in CBA/H mice; assay type: in vivo, mouse; settings: 7 days post-transplant, PI-88 treated recipient vs control
Excerpt: HS plays a critical role in maintaining the integrity and survival of islets and islet beta cells. […] It is therefore possible that heparanase also plays an important role in the immunological destruction of islet allografts (even in the absence of autoimmune attack). […] Heparanase inhibitors therefore represent an anti-rejection strategy for islet transplants in allogeneic hosts and have the capacity to protect grafted islets from both alloimmune and autoimmune attack.

skin allograft = settings: heparins exhibiting some anti-heparanase activity, mice; cited from earlier work
BALB/c islet beta cells = experiment: Islet beta cell survival in vitro after heparitinase treatment; assay type: cell-based, mouse; settings: 5-50 μg/ml heparin in culture, P<0.0001
Excerpt: FIG. 9: Isolated islets dispersed into single cells are predominantly insulin-producing beta cells, as confirmed by immunofluorescence. In contrast to control islet cells that remained intact over a 2 day culture period, beta cells treated for 1 hr with bacterial heparitinases (heparinases) (I+II+III; 0.25 U/ml) died (a). Placement of treated cells on an ECM (produced in vitro by a cell line) was able to largely rescue the beta cells from heparitinase-induced cell death (a).
In vitro studies were undertaken to further validate this concept. Isolated BALB/c islets dispersed into single cells using Dispase (1 mg/ml) consist predominantly of insulin-producing beta cells, as confirmed by immunofluorescence. […] Placement of treated cells on an ECM (produced in vitro by a cell line) was able to largely rescue the beta cells from heparitinase-induced cell death (P<0.0001) (FIG. 9(a)). These findings indicate that islet beta cells need cell-associated HS to survive. […] Islet beta cells therefore require cell-associated HS to remain viable and healthy.

Row | Substance | onset of clinical diabetes [1] | time normoglycemia (non-fasting blood glucose) maintained by islet isograft ([2]; PI-88 10 mg/kg/day i.p. from day 3 post-transplant, control hyperglycemic from day 3) | isograft histology at harvest (hematoxylin and eosin) ([2]; PI-88-treated mouse, control isograft showed aggressive autoimmune destruction) | LPS-induced inflammation [3] | leukocyte behaviour by intra-vital microscopy [3] | islet allograft histology [4] | skin allograft survival (skin allograft) | rescue of heparitinase-treated beta cells from cell death (BALB/c islet beta cells)
1 | PI-88 | prevents the onset of clinical diabetes in mice up to 24 weeks of age | up to 14 days | revascularised islets | prevented | leukocyte rolling and adherence to the vascular BM but no extravasation | better preservation of the engrafted allogeneic islets |  | 
2 | heparin |  |  |  |  |  |  | prolonged skin allograft survival | efficiently rescued
